This passage reports IC50 results from US8846698B2, “Pyrrolo[2,3-d]pyrimidine tropomysin-related kinase inhibitors” (Pfizer Limited, priority 2011, dated 2014).

pIC50: −log10 of the molar value.

Sequence of TRKA (P04629 441-796): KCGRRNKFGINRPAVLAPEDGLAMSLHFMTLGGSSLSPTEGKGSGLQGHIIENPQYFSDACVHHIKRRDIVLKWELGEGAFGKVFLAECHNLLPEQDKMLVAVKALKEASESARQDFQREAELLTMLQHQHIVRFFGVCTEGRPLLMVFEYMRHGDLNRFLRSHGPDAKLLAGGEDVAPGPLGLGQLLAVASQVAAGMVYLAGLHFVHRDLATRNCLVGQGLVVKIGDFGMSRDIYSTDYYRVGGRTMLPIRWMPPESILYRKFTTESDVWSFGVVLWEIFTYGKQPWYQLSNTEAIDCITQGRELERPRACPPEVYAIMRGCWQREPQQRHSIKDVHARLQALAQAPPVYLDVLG

This assay addresses TRKA (Homo sapiens (Human), UniProt P04629). The assay is described as follows: Isolated TRK enzyme assay (HTRF KinEASE-TK), TRKA. Format: biochemical. Particulars: read-out: Trka enzyme (IC50). For orientation: In TR-FRET formats the signal depends on donor and acceptor labels being close together.
`CC(C)n1cc(C(=O)c2cncc(NC(=O)Cc3c[nH]c4ccc(O)cc34)c2)c2cncnc21` [Example 158, 2-(5-hydroxy-1H-indol-3-yl)-N-{5-[(7-isopropyl-7H-pyrrolo[2,3-d]pyrimidin-5-yl)carbonyl]pyridin-3-yl}acetamide]: the pIC50 (as a rule, −log10 of the IC50, conventionally taken in molar units) is 6.64.
As to `CC(C)n1cc(C(=O)c2cncc(NC(=O)Cc3c[nH]c4nccnc34)c2)c2cncnc21` [Example 159, N-{5-[(7-isopropyl-7H-pyrrolo[2,3-d]pyrimidin-5-yl)carbonyl]pyridin-3-yl}-2-(5H-pyrrolo[2,3-b]pyrazin-7-yl)acetamide], the pIC50 is 6.63.
In the case of `Cc1cc2ncn(CC(=O)Nc3cncc(C(=O)c4cn(C(C)C)c5ncncc45)c3)c2cc1C` [Example 160, 2-(5,6-dimethyl-1H-benzimidazol-1-yl)-N-{5-[(7-isopropyl-7H-pyrrolo[2,3-d]pyrimidin-5-yl)carbonyl]pyridin-3-yl}acetamide], the negative-log IC50 (pIC50) is 5.97.
As for `CC(C)n1cc(C(=O)c2cncc(NC(=O)Cn3cc(-c4ccccn4)nn3)c2)c2cncnc21` [Example 161, N-{5-[(7-isopropyl-7H-pyrrolo[2,3-d]pyrimidin-5-yl)carbonyl]pyridin-3-yl}-2-(4-pyridin-2-yl-1H-1,2,3-triazol-1-yl)acetamide], the figure is 5.20.
For the compound `Cc1cn(CC(=O)Nc2cncc(C(=O)c3cn(C(C)C)c4ncncc34)c2)nn1` [Example 162, N-{5-[(7-isopropyl-7H-pyrrolo[2,3-d]pyrimidin-5-yl)carbonyl]pyridin-3-yl}-2-(4-methyl-1H-1,2,3-triazol-1-yl)acetamide], the pIC50 is 6.49.
Turning to `Cc1[nH]nc(-c2ccccc2)c1CC(=O)Nc1cncc(C(=O)c2cn(C(C)C)c3ncncc23)c1` [Example 163, N-{5-[(7-isopropyl-7H-pyrrolo[2,3-d]pyrimidin-5-yl)carbonyl]pyridin-3-yl}-2-(5-methyl-3-phenyl-1H-pyrazol-4-yl)acetamide], the pIC50 is 5.74.
As to `CSc1ncc(CC(=O)Nc2cncc(C(=O)c3cn(C(C)C)c4ncncc34)c2)cn1` [Example 164, N-{5-[(7-isopropyl-7H-pyrrolo[2,3-d]pyrimidin-5-yl)carbonyl]pyridin-3-yl}-2-[2-(methylthio)pyrimidin-5-yl]acetamide], the pIC50 was 6.88.
Take `CC(C)n1cc(C(=O)c2cncc(NC(=O)Cc3ncccn3)c2)c2cncnc21` [Example 165, N-{5-[(7-isopropyl-7H-pyrrolo[2,3-d]pyrimidin-5-yl)carbonyl]pyridin-3-yl}-2-pyrimidin-2-ylacetamide]: the pIC50 is 5.47.
Regarding `Cn1cc(C(=O)c2cncc(NC(=O)Cc3cc(F)ccc3C(F)(F)F)c2)c2cncnc21` [Example 167, 2-[5-Fluoro-2-(trifluoromethyl)phenyl]-N-{5-[(7-methyl-7H-pyrrolo[2,3-d]pyrimidin-5-yl)carbonyl]pyridin-3-yl}acetamide], the pIC50 is 5.46.
The result for `Cc1cccc(CC(=O)Nc2cncc(C(=O)c3cn(C)c4ncncc34)c2)c1` [Example 168, 2-(3-methylphenyl)-N-{5-[(7-methyl-7H-pyrrolo[2,3-d]pyrimidin-5-yl)carbonyl]pyridin-3-yl}acetamide] reads 6.15; that for `Cn1cc(C(=O)c2cncc(NC(=O)Cc3ccccc3C(F)(F)F)c2)c2cncnc21` [Example 169, N-{5-[(7-methyl-7H-pyrrolo[2,3-d]pyrimidin-5-yl)carbonyl]pyridin-3-yl}-2-[2-(trifluoromethyl)phenyl]acetamide], 5.51.
As for `Cn1cc(C(=O)c2cncc(NC(=O)Cc3cc(F)cc(F)c3)c2)c2cncnc21` [Example 170, 2-(3,5-difluorophenyl)-N-{5-[(7-methyl-7H-pyrrolo[2,3-d]pyrimidin-5-yl)carbonyl]pyridin-3-yl}acetamide], the pIC50 was 5.51.
For `Cn1cc(C(=O)c2cncc(NC(=O)Cc3c(F)cc(F)cc3F)c2)c2cncnc21` [Example 171, N-{5-[(7-methyl-7H-pyrrolo[2,3-d]pyrimidin-5-yl)carbonyl]pyridin-3-yl}-2-(2,4,6-trifluorophenyl)acetamide], the negative logarithm of the IC50 (pIC50) was 5.89.
